Measured values from patent US20090012170A1, “TREATMENT OF SYMPTOMS OF MOTOR DYSFUNCTION” (priority 2005, published 2009).

Tested on: PD patients
Assay: Pooled analysis of three double blind, placebo-controlled studies and their open-label extensions: earlier vs. delayed start of entacapone adjunct to levodopa/DDC inhibitor
Assay type: in vivo, human
Description: A study was carried out to evaluate the effect of earlier vs. delayed start of entacapone adjunct to traditional levodopa/DDC inhibitor treatment on the long-term Parkinson's disease symptom control up to 5 years.
Analysis of pooled data of three pivotal double blind, placebo-controlled studies, and their respective long-term open-label extension studies up to 5 years on entacapone adjunct to optimised levodopa/DDC inhibitor and other PD treatment.
A total of 488 PD patients, of whom 269 were on entacapone and 219 on placebo during the 6-month double blind phase, continued with open entacapone treatment in the long-term extension phases up to 5 years. UPDRS III assessment and the mean daily levodopa dose were reported until the point when a minimum of 10 patients in each treatment arm was available, i.e. up to five years.

`CCN(CC)C(=O)/C(C#N)=C/c1cc(O)c(O)c([N+](=O)[O-])c1` [entacapone, (E)-2-cyano-3-(3,4-dihydroxy-5-nitrophenyl)-N-diethyl-2 propenamide] was tested, and the “decrease of mean daily levodopa dose after initiation of open entacapone” value (delayed start group, comparable with the decrease in the earlier start group at the beginning of the double-blind phase, thereafter below baseline in both groups) was “about 70 mg” and the “mean difference in UPDRS III over time between the earlier and delayed start treatment groups” value (entacapone adjunct to levodopa/DDC inhibitor, earlier vs 6 months delayed start, up to 5 years, 95%CI [−3.01, −0.31], repeated measures analysis, p<0.05) was −1.66.
